Laboratory results from US5994334A, “Androgen synthesis inhibitors” (priority 1997, dated 1999).
Like-named read-outs stand apart in the source and are kept apart here.

Experiments:
[1] = molecular target: T1, human 17α-hydroxylase/C17,20-lyase (Homo sapiens, UniProt P05093); test: Inhibition of human testicular 17α-hydroxylase/C17,20-lyase (enzyme complex as a whole); type: biochemical; details: for inhibition of 17α-hydroxylase/C17,20-lyase (in words): NI = no inhibition
T1 construct: incubating human testicular microsomes; from tissue; host or cells: human testis, microsomes
T1 sequence (P05093 1-508): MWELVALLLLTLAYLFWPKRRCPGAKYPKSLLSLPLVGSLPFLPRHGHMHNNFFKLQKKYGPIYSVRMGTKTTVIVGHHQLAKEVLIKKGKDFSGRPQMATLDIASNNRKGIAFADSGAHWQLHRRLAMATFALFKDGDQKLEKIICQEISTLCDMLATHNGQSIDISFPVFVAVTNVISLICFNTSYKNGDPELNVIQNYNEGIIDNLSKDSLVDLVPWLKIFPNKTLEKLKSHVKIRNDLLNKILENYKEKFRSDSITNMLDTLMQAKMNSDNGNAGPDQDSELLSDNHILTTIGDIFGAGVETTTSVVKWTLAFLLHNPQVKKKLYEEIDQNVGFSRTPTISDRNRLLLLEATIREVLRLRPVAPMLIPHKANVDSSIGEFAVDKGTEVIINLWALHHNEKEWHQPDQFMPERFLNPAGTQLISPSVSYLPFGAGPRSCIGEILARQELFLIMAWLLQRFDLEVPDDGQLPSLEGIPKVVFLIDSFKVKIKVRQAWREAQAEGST
Method in brief: (§1)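 Radiolabeled pregnenolone, human testicular microsomes, test compound at varied concentrations; reverse-phase HPLC of substrate and metabolites. 17α-OHase = pregnenolone → 17α-OH-pregnenolone + DHEA; lyase = pregnenolone → DHEA.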

[2] = molecular target: T2, Human Testicular 17α-Hydroxylase (Homo sapiens, UniProt P05093); test: Inhibition of human testicular 17α-hydroxylase (pregnenolone substrate, testicular microsomes); type: biochemical; details: IC50 17α-OHase
T2 construct: incubating human testicular microsomes; from tissue; host or cells: human testis, microsomes
T2 sequence (P05093 1-508): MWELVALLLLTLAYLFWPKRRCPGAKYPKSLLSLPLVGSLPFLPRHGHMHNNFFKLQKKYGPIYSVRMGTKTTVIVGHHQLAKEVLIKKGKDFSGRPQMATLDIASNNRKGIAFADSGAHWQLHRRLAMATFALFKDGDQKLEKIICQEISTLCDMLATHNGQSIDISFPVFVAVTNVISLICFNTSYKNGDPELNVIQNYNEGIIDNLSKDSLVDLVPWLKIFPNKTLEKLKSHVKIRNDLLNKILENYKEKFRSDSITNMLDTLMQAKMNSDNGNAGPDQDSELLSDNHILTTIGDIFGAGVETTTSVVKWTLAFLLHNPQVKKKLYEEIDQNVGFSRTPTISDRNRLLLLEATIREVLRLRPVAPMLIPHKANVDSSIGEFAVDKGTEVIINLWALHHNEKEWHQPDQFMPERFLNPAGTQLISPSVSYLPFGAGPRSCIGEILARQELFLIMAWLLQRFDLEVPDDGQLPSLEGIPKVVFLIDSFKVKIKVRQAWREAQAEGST
Method in brief: as §1

[3] = molecular target: T3, Human Testicular C17,20-lyase (Homo sapiens, UniProt P05093); test: Inhibition of human testicular C17,20-lyase (pregnenolone substrate, testicular microsomes); type: biochemical
T3 construct: incubating human testicular microsomes; from tissue; host or cells: human testis, microsomes
T3 sequence (P05093 1-508): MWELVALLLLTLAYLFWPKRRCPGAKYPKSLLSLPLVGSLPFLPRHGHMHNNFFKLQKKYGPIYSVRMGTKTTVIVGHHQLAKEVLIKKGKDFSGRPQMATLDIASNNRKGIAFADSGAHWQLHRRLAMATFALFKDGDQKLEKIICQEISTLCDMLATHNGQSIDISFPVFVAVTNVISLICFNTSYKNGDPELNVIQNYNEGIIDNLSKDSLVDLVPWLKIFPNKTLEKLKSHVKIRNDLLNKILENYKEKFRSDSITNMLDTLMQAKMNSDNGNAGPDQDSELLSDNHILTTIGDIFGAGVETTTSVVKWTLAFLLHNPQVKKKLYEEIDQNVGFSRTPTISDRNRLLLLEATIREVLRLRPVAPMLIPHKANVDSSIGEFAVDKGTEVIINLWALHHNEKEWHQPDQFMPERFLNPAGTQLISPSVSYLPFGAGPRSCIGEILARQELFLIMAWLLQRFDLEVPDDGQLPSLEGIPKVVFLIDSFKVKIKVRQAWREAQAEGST
Method in brief: as §1

[4] = molecular target: T4, Human Prostatic 5α-Reductase (Homo sapiens, UniProt P31213); test: Inhibition of human prostatic 5α-reductase (prostatic microsomes, [3H]testosterone); details: for inhibition at 0.01 µM: read-out: % Inhibition of 5α-reductase, [I] 10 nM; for inhibition at 0.1 µM: read-out: % Inhibition of 5α-reductase, [I] 100 nM
T4 sequence (P31213 1-254): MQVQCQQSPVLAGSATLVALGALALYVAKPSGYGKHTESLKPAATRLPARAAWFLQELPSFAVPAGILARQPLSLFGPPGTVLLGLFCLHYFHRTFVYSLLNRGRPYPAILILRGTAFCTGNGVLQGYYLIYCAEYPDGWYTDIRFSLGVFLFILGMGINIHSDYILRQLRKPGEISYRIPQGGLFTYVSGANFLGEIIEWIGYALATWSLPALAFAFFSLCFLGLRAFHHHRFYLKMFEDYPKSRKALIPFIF
Method: The 5α-reductase assay is performed by incubating human prostatic microsomes (approx. 0.6 mg protein in 0.5 ml phosphate buffer) with [7-^3 H]testosterone (10 mM. 6×10^5 dpm) with a NADPH generating system (NADP 0.65 mM; glucose-6-phosphate 7.1 mM; glucose-6-phosphate dehydrogenase 2.5 IU in 100 μl phosphate buffer) and candidate inhibitors at concentrations of 10 nM and 100 nM under oxygen for 30 min at 37° C. […] The steroids are extracted with ether and separated by chromatography on TLC (chloroform:ether 80:20). […] The steroids are scraped from the plate and radioactivity measured.

adrenal C17,20-lyase = test: Inhibition of adrenal C17,20-lyase; type: biochemical; details: guinea pig adrenal
Method: (§2) These studies were carried out using guinea pig adrenals. In contrast to the rat, the guinea pig synthesizes cortisol, like the human. […] I-5 and I-7 were of interest, as they had relatively little (4%) or no effect on the adrenal 17α-hydroxylase required for cortisol synthesis but had moderately strong effects on the C17,20 -lyase causing reduction in adrenal androgen synthesis (77% and 63%, respectively).

adrenal 17α-hydroxylase = test: Inhibition of adrenal 17α-hydroxylase; type: biochemical; details: guinea pig adrenal
Method: as §2

[5] = molecular target: human androgen receptor (AR) (Homo sapiens, UniProt P10275); test: Androgen receptor-mediated gene transcription, wild-type AR (luciferase, CV1 cells); type: cell-based; details: against DHT stimulation
[6] = tested on: LNCaP human prostatic tumors; test: Human prostatic cancer (LNCaP) xenograft in male nude mice; type: in vivo, human (LNCaP) tumors in BALB/c male athymic mice; details: 1 mg/mouse/day s.c.
Method: We have reported that inoculation of MCF-7 breast cancer cells in Matrigel increases mammary tumor formation in nude mice (Yue et al., 1994). The same procedure was therefore utilized to develop tumors from human prostatic cancer cells (LNCAP) in male nude mice. BALB/c male athymic mice, 4-6 weeks old, were inoculated sc with LNCaP cells suspended in Matrigel (10 mg/ml). Four sites per mouse were injected with 1.8×10^6 cells in 0.1 ml Matrigel. Treatment began when the tumor reached about 100 mm^3 in volume. Tumors were measured before the treatment began and once a week during treatment. Tumor volume was calculated by the formula 4/3πr1^2 r2 (r1 <r2).At the end of treatment, the mice were sacrificed and individual tumors were weighed. The latency of tumor development was 30-40 days and overall tumorigenicity was 82%.
In a further experiment, two mice were treated with I-16 (1 mg/mouse/day, s.c.) beginning 45 days after cell inoculation. Two mice received vehicle as controls. […] The mean tumor weight was 198.78±72 mg in I-16 treated mice compared to 386.3±147.2 mg in the control group. In other experiments, I-47 and I-49 were effective in controlling tumor growth. The total tumor volume of the control mice increased to 884.0% of the initial volume.

[7] = tested on: mutant AR which is expressed in LNCaP cells; test: Androgen receptor-mediated gene transcription, mutant AR of LNCaP cells (luciferase, CV1 cells); type: cell-based, human
normal male rats = test: In vivo studies in normal male rats: hormone levels; design: species or system rat; details: rat
Description: (§3) Studies in normal male rats have been carried out with 4-pregnen-3-one-20β-carboxaldehyde (I-16) (Li et al., 1992) and with its 20-carboxaldoxime (I-23)(Li et al., 1995).

[8] = tested on: rat 17α-hydroxylase/C17,20-lyase; test: Inhibition of rat 17α-hydroxylase/C17,20-lyase; type: biochemical
Description: as §3

Chain of human androgen receptor (AR) (P10275 whole entry): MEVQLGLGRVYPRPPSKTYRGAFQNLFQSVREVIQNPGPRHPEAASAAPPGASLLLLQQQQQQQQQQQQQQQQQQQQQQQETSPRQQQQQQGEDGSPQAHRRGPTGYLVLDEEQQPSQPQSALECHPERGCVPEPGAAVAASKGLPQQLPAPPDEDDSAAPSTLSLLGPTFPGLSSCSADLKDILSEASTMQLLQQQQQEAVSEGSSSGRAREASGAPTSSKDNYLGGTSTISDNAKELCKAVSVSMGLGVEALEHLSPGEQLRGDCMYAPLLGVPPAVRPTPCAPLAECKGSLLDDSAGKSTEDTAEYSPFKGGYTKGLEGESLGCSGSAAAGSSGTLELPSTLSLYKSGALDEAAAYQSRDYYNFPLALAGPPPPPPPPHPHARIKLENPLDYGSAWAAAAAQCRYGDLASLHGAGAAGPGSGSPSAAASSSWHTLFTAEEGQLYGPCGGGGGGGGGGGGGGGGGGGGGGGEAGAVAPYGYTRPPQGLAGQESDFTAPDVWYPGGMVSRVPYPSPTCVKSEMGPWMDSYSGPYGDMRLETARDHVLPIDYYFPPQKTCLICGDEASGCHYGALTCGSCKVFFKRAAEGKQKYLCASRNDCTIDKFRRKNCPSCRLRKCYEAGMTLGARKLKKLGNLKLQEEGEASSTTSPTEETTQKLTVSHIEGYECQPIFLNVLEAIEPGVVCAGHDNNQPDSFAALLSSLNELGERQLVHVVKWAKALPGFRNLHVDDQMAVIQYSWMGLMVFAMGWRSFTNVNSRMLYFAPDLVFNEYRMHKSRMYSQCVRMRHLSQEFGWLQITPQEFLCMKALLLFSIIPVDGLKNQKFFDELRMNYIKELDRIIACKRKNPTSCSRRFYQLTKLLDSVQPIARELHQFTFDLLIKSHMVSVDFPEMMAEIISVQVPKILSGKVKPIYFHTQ

| SMILES | inhibition of 17α-hydroxylase/C17,20-lyase (in words) [1] | fold more potent inhibition than 20-oxime (I-1) ([1]; vs I-1) | IC50 [2] | IC50 ([3]; IC50 C17,20 lyase) | inhibition at 0.01 µM [4] | inhibition at 0.1 µM [4] | reduction in adrenal androgen synthesis (C17,20-lyase) (adrenal C17,20-lyase) | effect on adrenal 17α-hydroxylase (adrenal 17α-hydroxylase; 17α-hydroxylase required for cortisol synthesis) | IC50 ([3]; Table 1, NI = no inhibition, CI = complete inhibition, read-out: IC50 C17,20 lyase) | effect on adrenal 17α-hydroxylase (in words) (adrenal 17α-hydroxylase) | antagonism of wild-type AR (in words) [5] | total tumor volume (% of initial volume), 3 weeks ([6]; 3 weeks, two mice, control 281%) | mean tumor weight, 3-week experiment ([6]; control 386.3±147.2 mg) | agonism/antagonism at mutant AR of LNCaP cells (in words) [7] | reduction of testosterone and DHT levels in serum, testicular and prostatic tissues (in words) (normal male rats) | inhibition of rat 17α-hydroxylase/C17,20-lyase (in words) [8] |
| --- | --- | --- | --- | --- | --- | --- | --- | --- | --- | --- | --- | --- | --- | --- | --- | --- |
| CC(=NO)C1=CC[C@H]2[C@@H]3CC=C4C[C@@H](O)CC[C@]4(C)[C@H]3CC[C@]12C [Compound I-5, 16-dehydropregnenolone-20-oxime] | potent inhibition | 35 fold | 16 nM | 16 nM | 0% | 5.92% | 77% | 4% | – | – | – | – | – | – | – | – |
| C[C@]12CC[C@H]3[C@@H](CC=C4C[C@@H](O)CC[C@@]43C)[C@@H]1CC[C@@H]2[C@]1(C)CO1 [Compound I-7] | – | – | – | – | 13.6% | 12.1% | 63% | – | 720 nM | no effect | – | – | – | – | – | – |
| C[C@H](C=O)[C@H]1CC[C@H]2[C@@H]3CCC4=CC(=O)CC[C@]4(C)[C@H]3CC[C@]12C [Compound I-16, 4-pregnen-3-one-20β-carboxaldehyde] | significant inhibition | – | – | – | 20.5% | 87.2% | – | – | – | – | dose-dependent antagonism | 173.6% | 198.78 ± 72 mg | agonists | significantly reducing testosterone and DHT levels | inhibit rat 17α-hydroxylase/C17,20 -lyase |
